Assay results taken from ChEMBL document CHEMBL3804825, “Synthesis, structure-activity relationships, and biological evaluation of a series of benzamides as potential multireceptor antipsychotics” (Bioorg Med Chem Lett, 2016).
Calls of active or inactive are those of the source. The rule behind the calls is not given here.

Columns and labels:
[1] = molecular target: D(2) dopamine receptor (Homo sapiens, UniProt P14416); assay: Antagonistic activity at human dopamine D2 receptor measured after 60 mins by Ultra Lance cAMP assay; assay type: functional
D(2) dopamine receptor, sequence (P14416 whole entry): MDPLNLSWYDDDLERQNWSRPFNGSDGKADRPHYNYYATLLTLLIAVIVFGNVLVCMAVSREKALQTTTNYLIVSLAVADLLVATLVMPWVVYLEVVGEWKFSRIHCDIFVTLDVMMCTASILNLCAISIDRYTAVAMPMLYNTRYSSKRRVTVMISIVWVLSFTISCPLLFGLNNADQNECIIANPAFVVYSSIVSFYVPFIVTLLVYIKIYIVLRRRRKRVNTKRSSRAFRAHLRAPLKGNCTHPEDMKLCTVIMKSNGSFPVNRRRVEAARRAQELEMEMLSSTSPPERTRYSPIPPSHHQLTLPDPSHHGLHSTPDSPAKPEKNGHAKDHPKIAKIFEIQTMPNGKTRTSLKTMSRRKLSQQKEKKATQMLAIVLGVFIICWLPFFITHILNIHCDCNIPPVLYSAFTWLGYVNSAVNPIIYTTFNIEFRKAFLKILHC

[2] = molecular target: T1, 5-hydroxytryptamine receptor 1A (Homo sapiens, UniProt P08908); assay: Agonistic activity at human 5-HT1A receptor measured after 60 mins by Ultra Lance cAMP assay; assay type: functional
T1 sequence (P08908 whole entry): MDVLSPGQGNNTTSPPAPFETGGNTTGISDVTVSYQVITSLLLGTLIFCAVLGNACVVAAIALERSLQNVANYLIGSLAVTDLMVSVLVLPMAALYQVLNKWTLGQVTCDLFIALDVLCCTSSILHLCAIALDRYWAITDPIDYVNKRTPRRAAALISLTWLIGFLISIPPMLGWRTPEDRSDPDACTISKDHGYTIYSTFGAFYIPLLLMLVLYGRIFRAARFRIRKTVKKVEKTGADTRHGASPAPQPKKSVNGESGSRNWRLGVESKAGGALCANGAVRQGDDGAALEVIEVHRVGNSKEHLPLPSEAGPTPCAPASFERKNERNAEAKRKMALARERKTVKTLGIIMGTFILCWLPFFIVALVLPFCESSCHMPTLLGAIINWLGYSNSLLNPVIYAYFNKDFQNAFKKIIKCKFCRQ

[3] = molecular target: 5-hydroxytryptamine receptor 2A (Homo sapiens, UniProt P28223); assay: Antagonistic activity at human 5-HT2A receptor assessed as calcium flux after 10 mins by FLIPR assay; assay type: functional
5-hydroxytryptamine receptor 2A, sequence (P28223 whole entry): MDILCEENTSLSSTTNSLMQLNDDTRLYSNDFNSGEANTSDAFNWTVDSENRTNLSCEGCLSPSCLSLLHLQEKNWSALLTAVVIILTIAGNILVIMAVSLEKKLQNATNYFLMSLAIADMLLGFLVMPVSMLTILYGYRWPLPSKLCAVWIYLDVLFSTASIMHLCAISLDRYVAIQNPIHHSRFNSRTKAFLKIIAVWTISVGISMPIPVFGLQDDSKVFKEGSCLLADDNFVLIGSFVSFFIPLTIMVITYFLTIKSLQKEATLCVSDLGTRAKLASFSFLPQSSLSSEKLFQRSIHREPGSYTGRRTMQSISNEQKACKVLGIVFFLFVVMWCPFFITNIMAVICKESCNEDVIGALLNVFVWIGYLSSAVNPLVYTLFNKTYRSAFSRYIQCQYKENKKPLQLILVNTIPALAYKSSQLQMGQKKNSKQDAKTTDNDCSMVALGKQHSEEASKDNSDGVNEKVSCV

[4] = Metabolic stability in human liver microsomes assessed as compound loss at 2 uM measured after 30 mins in presence of NADPH by LC-MS/MS analysis; assay type: ADME; conditions: read-out: Drug degradation
[5] = system: Mus musculus; assay: Antipsychotic activity in mouse assessed as inhibition of PCP-induced hyperactivity at 10 mg/kg, ip administered 45 mins prior testing measured after 60 mins; assay type: functional, organism-based
[6] = system: Mus musculus; assay: Toxicity in mouse assessed as induction of sedation at 1 mg/kg, ip administered 45 mins prior testing measured after 60 mins; assay type: organism-based; conditions: in vivo, 1 h
[7] = molecular target: T2, Alpha-1A adrenergic receptor (Homo sapiens, UniProt P35348); assay: Antagonistic activity at alpha-1A adrenergic receptor (unknown origin) after 10 mins by FLIPR assay
T2 sequence (P35348 whole entry): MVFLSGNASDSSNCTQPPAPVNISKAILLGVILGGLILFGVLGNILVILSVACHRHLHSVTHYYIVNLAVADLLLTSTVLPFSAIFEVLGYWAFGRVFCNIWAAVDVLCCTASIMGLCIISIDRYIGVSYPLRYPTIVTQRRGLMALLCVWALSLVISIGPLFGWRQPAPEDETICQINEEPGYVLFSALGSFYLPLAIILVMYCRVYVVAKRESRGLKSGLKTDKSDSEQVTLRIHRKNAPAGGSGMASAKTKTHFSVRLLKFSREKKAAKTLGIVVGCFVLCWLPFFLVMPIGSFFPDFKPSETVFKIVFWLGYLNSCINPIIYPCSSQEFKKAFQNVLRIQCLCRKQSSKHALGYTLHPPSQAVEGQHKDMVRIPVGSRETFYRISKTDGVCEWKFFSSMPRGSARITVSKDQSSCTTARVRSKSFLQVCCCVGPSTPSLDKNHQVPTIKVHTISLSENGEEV

[8] = molecular target: Histamine H1 receptor (Homo sapiens, UniProt P35367); assay: Antagonistic activity at histamine1 receptor (unknown origin) after 10 mins by FLIPR assay
Histamine H1 receptor, sequence (P35367 whole entry): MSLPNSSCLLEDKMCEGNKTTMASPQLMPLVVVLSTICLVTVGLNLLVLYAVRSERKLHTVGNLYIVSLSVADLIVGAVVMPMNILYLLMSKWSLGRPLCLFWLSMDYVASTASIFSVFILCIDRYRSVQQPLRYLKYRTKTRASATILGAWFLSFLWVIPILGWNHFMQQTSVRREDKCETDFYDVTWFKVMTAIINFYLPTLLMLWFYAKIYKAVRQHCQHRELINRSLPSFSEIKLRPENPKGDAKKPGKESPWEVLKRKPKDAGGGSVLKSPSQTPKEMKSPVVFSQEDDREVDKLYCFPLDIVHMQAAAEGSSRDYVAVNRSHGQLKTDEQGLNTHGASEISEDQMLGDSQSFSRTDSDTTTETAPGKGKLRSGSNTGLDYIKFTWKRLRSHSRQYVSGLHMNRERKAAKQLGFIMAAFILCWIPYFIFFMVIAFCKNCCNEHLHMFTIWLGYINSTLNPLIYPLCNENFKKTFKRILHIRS

[9] = system: Mus musculus; assay: Toxicity in ig dosed mouse assessed as induction of catalepsy by horizontal bar method; assay type: organism-based; conditions: in vivo, po
[10] = in vivo; conditions: mouse, po
Description: Therapeutic index, ratio of ED50 for toxicity in orally dosed mouse by catalepsy test to ED50 for antipsychotic activity in mouse

[11] = molecular target: T3, 5-hydroxytryptamine receptor 2C (Homo sapiens, UniProt P28335); assay: Antagonistic activity at 5-HT2c receptor (unknown origin) after 10 mins by FLIPR assay
T3 sequence (P28335 whole entry): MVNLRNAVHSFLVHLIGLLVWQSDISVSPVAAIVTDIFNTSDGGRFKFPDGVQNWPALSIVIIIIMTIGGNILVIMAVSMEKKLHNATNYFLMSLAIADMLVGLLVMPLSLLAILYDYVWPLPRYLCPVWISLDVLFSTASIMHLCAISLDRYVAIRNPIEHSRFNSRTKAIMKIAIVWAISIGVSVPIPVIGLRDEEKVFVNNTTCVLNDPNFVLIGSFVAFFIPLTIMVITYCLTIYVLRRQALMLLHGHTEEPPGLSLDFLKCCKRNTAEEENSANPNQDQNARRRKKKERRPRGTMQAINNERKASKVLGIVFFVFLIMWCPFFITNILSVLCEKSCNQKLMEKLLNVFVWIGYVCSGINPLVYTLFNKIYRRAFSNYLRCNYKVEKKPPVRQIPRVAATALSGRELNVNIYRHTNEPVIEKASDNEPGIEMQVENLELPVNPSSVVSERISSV

[12] = system: Mus musculus; assay: Toxicity in mouse assessed as induction of sedation at 10 mg/kg, ip administered 45 mins prior testing measured after 60 mins; assay type: organism-based; conditions: in vivo, 1 h
[13] = system: Mus musculus; assay: Antipsychotic activity in mouse assessed as inhibition of PCP-induced hyperactivity at 1 mg/kg, ip administered 45 mins prior testing measured after 60 mins; assay type: functional, organism-based
[14] = system: Mus musculus; assay: Antipsychotic activity in ig dosed mouse assessed as inhibition of PCP-induced hyperactivity; assay type: functional; conditions: for ED50: po
[15] = molecular target: Voltage-gated inwardly rectifying potassium channel KCNH2 (Homo sapiens, UniProt Q12809)
Voltage-gated inwardly rectifying potassium channel KCNH2, sequence (Q12809 whole entry): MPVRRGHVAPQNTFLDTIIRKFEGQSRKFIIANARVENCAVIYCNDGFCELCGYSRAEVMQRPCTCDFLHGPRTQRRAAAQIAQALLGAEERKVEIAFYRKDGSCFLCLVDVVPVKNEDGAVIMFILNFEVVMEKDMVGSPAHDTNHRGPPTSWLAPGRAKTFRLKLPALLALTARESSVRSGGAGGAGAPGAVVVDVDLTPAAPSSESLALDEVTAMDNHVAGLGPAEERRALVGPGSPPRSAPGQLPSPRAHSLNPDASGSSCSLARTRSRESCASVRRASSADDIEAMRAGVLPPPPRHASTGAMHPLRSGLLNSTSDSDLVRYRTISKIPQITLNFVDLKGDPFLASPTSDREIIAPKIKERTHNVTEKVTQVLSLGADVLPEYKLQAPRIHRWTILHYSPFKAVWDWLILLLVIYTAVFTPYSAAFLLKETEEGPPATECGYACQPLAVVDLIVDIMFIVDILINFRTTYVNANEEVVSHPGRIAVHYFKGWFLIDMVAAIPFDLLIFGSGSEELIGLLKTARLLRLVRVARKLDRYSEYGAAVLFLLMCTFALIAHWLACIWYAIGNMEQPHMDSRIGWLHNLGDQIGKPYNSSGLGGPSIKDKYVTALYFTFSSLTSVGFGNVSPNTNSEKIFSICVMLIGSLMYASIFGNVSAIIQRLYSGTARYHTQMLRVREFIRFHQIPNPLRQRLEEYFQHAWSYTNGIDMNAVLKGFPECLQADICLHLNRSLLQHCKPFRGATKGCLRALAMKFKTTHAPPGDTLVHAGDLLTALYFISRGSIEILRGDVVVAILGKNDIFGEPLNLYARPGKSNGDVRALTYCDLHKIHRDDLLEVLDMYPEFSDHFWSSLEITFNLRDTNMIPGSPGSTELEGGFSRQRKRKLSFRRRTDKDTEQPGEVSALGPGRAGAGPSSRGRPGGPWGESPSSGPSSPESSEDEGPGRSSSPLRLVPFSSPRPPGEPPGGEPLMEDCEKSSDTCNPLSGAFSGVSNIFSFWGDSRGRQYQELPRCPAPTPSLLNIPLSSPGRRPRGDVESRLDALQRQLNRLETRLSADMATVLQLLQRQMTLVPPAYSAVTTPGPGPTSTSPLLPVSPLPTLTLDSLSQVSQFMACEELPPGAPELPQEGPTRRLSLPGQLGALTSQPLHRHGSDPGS
Description: Inhibition of human ERG after 10 mins

SMILES | IC50 [1] [nM] | EC50 [2] [nM] | IC50 [3] [nM] | other results
CNC(=O)c1cccc(OCCCCN2CCN(c3cccc4sccc34)CC2)c1 | 91 | 5.1 | 216 | –
CNC(=O)c1cc(OCCCCN2CCN(c3cccc(Cl)c3Cl)CC2)ccc1F | 39.4 | 7.2 | 360 | –
CNC(=O)c1ccc(Cl)c(OCCCCN2CCN(c3cccc(Cl)c3Cl)CC2)c1 | 58.5 | > 10000 | 1380 | –
CNC(=O)c1ccc(OC)c(OCCCCN2CCN(c3cccc(Cl)c3Cl)CC2)c1 | 12 | 26 | 840 | –
CNC(=O)c1cccc(OCCCCN2CCN(c3cccc(Cl)c3Cl)CC2)c1OC | 202 | 120 | 720 | –
CNC(=O)c1cc(OCCCCN2CCN(c3nsc4ccccc34)CC2)ccc1F | 12 | 2.7 | 35 | metabolised at 0.5 h, 2 µM [4]: 47%; inhibition [5]: inactive
CNC(=O)c1cccc(OCCCCN2CCN(c3cccc(Cl)c3Cl)CC2)c1F | 171 | 301 | 30.3 | –
CNC(=O)c1cc(F)cc(OCCCCN2CCN(c3cccc(Cl)c3Cl)CC2)c1 | 1580 | 361 | 1320 | –
CNC(=O)c1cc(OCCCCN2CCN(c3cccc(Cl)c3Cl)CC2)ccc1C | 9.8 | 74 | 460 | –
CNC(=O)c1cccc(OCCCCN2CCC(c3noc4cc(F)ccc34)CC2)c1 | 8.5 | 13 | 46 | Activity [6]: Non-toxic; metabolised at 0.5 h, 2 µM [4]: 3%; IC50 [7]: 35 nM; IC50 [8]: 2560 nM; ED50 [9]: 6.76 mg/kg; selectivity ratio [10]: 113; IC50 [11]: 190 nM; Activity [12]: Toxic; inhibition [13]: Active; inhibition [14]: Dose-dependent effect; ED50 [14]: 0.06 mg/kg; inhibition [5]: Active; IC50 [15]: 1030 nM
CNC(=O)c1cc(OCCCCN2CCN(c3cccc(Cl)c3Cl)CC2)ccc1Cl | 34.9 | 34.4 | 340 | –
CNC(=O)c1cc(OCCCCN2CCN(c3cccc(Cl)c3Cl)CC2)cc(C(C)=O)c1 | 37.7 | 137 | 494 | –
NC(=O)c1cccc(OCCCCN2CCN(c3cccc(Cl)c3Cl)CC2)c1 | – | 26 | 1100 | –
CNC(=O)c1cccc(OCCCCN2CCN(c3cccc(Cl)c3Cl)CC2)c1C | 3600 | 122 | 860 | –
CNC(=O)c1cccc(OCCCCN2CCN(c3cccc(Cl)c3Cl)CC2)c1 | 32 | 24 | 1100 | –
CNC(=O)c1cccc(OCCCCN2CCN(c3cccc4c3OC(F)(F)O4)CC2)c1 | 4.1 | 12 | > 10000 | –
CNC(=O)c1ccccc1OCCCCN1CCN(c2cccc(Cl)c2Cl)CC1 | 167 | 309 | 2200 | –
CCCCCNC(=O)c1cccc(OCCCCN2CCN(c3cccc(Cl)c3Cl)CC2)c1 | 16.8 | 464 | 1100 | –
CNC(=O)c1cccc(OCCCCN2CCN(c3nsc4ccccc34)CC2)c1 | 10 | 4.3 | 180 | –
CNC(=O)c1ccc(OCCCCN2CCN(c3cccc(Cl)c3Cl)CC2)cc1 | 70 | 122 | 820 | –
Cc1nc2n(c(=O)c1CCN1CCC(c3noc4cc(F)ccc34)CC1)CCCC2 [RISPERIDONE] | – | – | – | ED50 [9]: 0.3 mg/kg
CC(=O)Nc1cccc(OCCCCN2CCN(c3cccc(Cl)c3Cl)CC2)c1 | 98.4 | > 100 | 1050 | –
CCNC(=O)c1cccc(OCCCCN2CCN(c3cccc(Cl)c3Cl)CC2)c1 | 116 | 101 | 670 | –
CNC(=O)c1cc(OCCCCN2CCC(c3noc4cc(F)ccc34)CC2)ccc1F | 23 | 13 | 15 | Activity [6]: Non-toxic; metabolised at 0.5 h, 2 µM [4]: 14%; IC50 [7]: 120 nM; IC50 [8]: 972 nM; ED50 [9]: 7.04 mg/kg; IC50 [11]: 270 nM; Activity [12]: Toxic; inhibition [13]: Active; inhibition [14]: Dose-dependent effect; ED50 [14]: 0.11 mg/kg; inhibition [5]: Active
CNC(=O)c1cc(C)cc(OCCCCN2CCN(c3cccc(Cl)c3Cl)CC2)c1 | 89.8 | 97.2 | 1400 | –
CNC(=O)c1cc(OCCCCN2CCN(c3cccc4c3OC(F)(F)O4)CC2)ccc1F | 30 | 8.2 | 1900 | –
CNC(=O)c1cc(OCCCCN2CCN(c3cccc4sccc34)CC2)ccc1F | 43 | 6 | 80 | metabolised at 0.5 h, 2 µM [4]: 51%; inhibition [5]: inactive
